The values that follow come from ChEMBL document CHEMBL5120849, “Identification of novel and potent PROTACs targeting FAK for non-small cell lung cancer: Design, synthesis, and biological study” (Eur J Med Chem, 2022).

The test system of data set [1] is A549. The experiment in a line: cells. To be noted: Homo sapiens, A549, 72 h.
Data set [2] relates to A549. The data set is described as follows: Antiinvasive activity in human A549 cells assessed as inhibition of cell invasion by measuring reduction in cell count incubated for 72 hrs by crystal violet staining based transwell assay. The note with it: dose 0.2-1.8 µM, DDE = dose-dependent effect. The format is functional.
Data set [3] in a line: Stability in pooled human plasma assessed as parent compound remaining at 2 uM measured after 120 mins by LC-MS/MS analysis (reference value: 100%). Format: ADME, cell-free. To be noted: read-out: Stability.
A short description of data set [4]: Stability in pooled human plasma assessed as parent compound remaining at 2 uM measured after 60 mins by LC-MS/MS analysis (reference value: 100%). The format is ADME, cell-free. To be noted: read-out: Stability.
For data set [5], the system named is A549. The data set is described as follows: Inhibition of cell migration in human A549 cells assessed as wound recovery at 1.8 uM measured after 72 hrs by inverted microscopic analysis (reference value: 53.4 %). Format: functional. The arrangement: scale not given: the % may be the effect or the level left.
Data set [6] in a line: Stability in pooled human plasma assessed as parent compound remaining at 2 uM measured after 30 mins by LC-MS/MS analysis (reference value: 100%). The note with it: read-out: Stability. The format is ADME, cell-free.
Data set [7] has as its system A549. The data set is described as follows: Inhibition of cell migration in human A549 cells assessed as wound recovery at 0.2 uM measured after 24 hrs by inverted microscopic analysis (reference value: 28.2 %). Format: functional. The arrangement: scale not given: the % may be the effect or the level left.
Data set [8] relates to A549. The experiment in a line: Inhibition of cell migration in human A549 cells assessed as wound recovery at 0.6 uM measured after 24 hrs by inverted microscopic analysis (reference value: 28.2 %). Format: functional. The arrangement: scale not given: the % may be the effect or the level left.
A short description of data set [9]: Apparent permeability across basolateral to apical side in human Caco-2 cells at 2 uM incubated for 2 hrs by LC-MS/MS analysis. The format is ADME, cell-based.
The nature of data set [10]: Apparent permeability across apical to basolateral side in human Caco-2 cells at 2 uM incubated for 2 hrs by LC-MS/MS analysis. The format is ADME, cell-based.
Data set [11] can be described thus: Stability in pooled human plasma assessed as parent compound remaining at 2 uM measured after 10 mins by LC-MS/MS analysis (reference value: 100%). The format is ADME, cell-free. To be noted: read-out: Stability.
The test system of data set [12] is A549. The data set is described as follows: Inhibition of cell migration in human A549 cells assessed as wound recovery at 0.6 uM measured after 72 hrs by inverted microscopic analysis (reference value: 53.4 %). Format: functional. The arrangement: scale not given: the % may be the effect or the level left.
Data set [13] concerns A549. The experiment in a line: Inhibition of cell migration in human A549 cells assessed as wound recovery at 0.2 uM measured after 72 hrs by inverted microscopic analysis (reference value: 53.4 %). Format: functional. The arrangement: scale not given: the % may be the effect or the level left.
The nature of data set [14]: Stability in pooled human plasma assessed as half life at 2 uM measured upto 120 mins by LC-MS/MS analysis. The format is ADME, cell-free.
The test system of data set [15] is A549. The data set is described as follows: Inhibition of cell migration in human A549 cells assessed as wound recovery at 1.8 uM measured after 24 hrs by inverted microscopic analysis (reference value: 28.2 %). The arrangement: scale not given: the % may be the effect or the level left. The format is functional.

`CNC(=O)c1ccccc1Nc1nc(Nc2ccc(N3CCOCC3)cc2OC)ncc1Cl` yielded an IC50 in the data set on A549 [1] of 1310 nM. For the same compound, in the data set on A549 [2], the Activity result was “Dde”.

Consider `CNC(=O)c1ccccc1Nc1nc(Nc2ccc(N3CCN(CCCCCCCCCC(=O)Nc4cccc5c4C(=O)N(C4CCC(=O)NC4=O)C5=O)CC3)cc2OC)ncc1Cl` (configuration not stated), for which, in the data set on A549 [1], 3580 nM corresponded to half-maximal inhibition (IC50).

In the case of `CNC(=O)c1ccccc1Nc1nc(Nc2ccc(N3CCN(CCCCC(=O)Nc4cccc5c4CN(C4CCC(=O)NC4=O)C5=O)CC3)cc2OC)ncc1Cl` (configuration not stated), the IC50 in the data set with A549 [1] was determined as 270 nM.

In the data set on A549 [1], `CNC(=O)c1ccccc1Nc1nc(Nc2ccc(N3CCN(CCCCCC(=O)NCCNc4cccc5c4C(=O)N(C4CCC(=O)NC4=O)C5=O)CC3)cc2OC)ncc1Cl` (configuration not stated) gave a half-inhibitory concentration (IC50) of 310 nM.

Consider `CNC(=O)c1ccccc1Nc1nc(Nc2ccc(N3CCN(CCCCCCC(=O)Nc4cccc5c4C(=O)N(C4CCC(=O)NC4=O)C5=O)CC3)cc2OC)ncc1Cl` (configuration not stated), for which, in the data set on A549 [1], it took 790 nM to reach half-maximal inhibition (IC50).

Compound `CNC(=O)c1ccccc1Nc1nc(Nc2ccc(N3CCN(CCCCCCCCNC(=O)CNc4cccc5c4C(=O)N(C4CCC(=O)NC4=O)C5=O)CC3)cc2OC)ncc1Cl` (configuration not stated) showed an IC50 in the data set on A549 [1] of 2250 nM.

For `CNC(=O)c1ccccc1Nc1nc(Nc2ccc(N3CCN(CCCCC(=O)Nc4cccc5c4C(=O)N(C4CCC(=O)NC4=O)C5=O)CC3)cc2OC)ncc1Cl` (configuration not stated), the remaining at 2 h, 2 µM in data set [3] came to 86.2%. In the data set on A549 [1], this compound had an IC50 of 140 nM. Further, the remaining at 1 h, 2 µM in data set [4] was 98.3%. The Activity in the data set with A549 [5] is 21.7%; in the data set with A549 [7], 13.7%; with A549 [8], 11.1%; with A549 [2], “Dde”; in the data set with A549 [12] it was 33.3%; in the data set on A549 [13] it was 42.4%. The Activity in the data set on A549 [15] is reported as 3.6%. Further, the remaining at 0.5 h, 2 µM in data set [6] came out at 96.6%. In data set [9], the Papp B→A at 2 h, 2 µM amounted to 4.7 ×10⁻⁶ cm/s. The Papp A→B at 2 h, 2 µM in data set [10] was 1.4 ×10⁻⁶ cm/s. Further, the remaining at 10 min, 2 µM in data set [11] amounted to 112%. The half-life at 2 µM in [14] is greater than 4.82 h.

Compound `CNC(=O)c1ccccc1Nc1nc(Nc2ccc(N3CCN(CCCCCCCC(=O)NCCNc4cccc5c4C(=O)N(C4CCC(=O)NC4=O)C5=O)CC3)cc2OC)ncc1Cl` (configuration not stated) gave an IC50 in the data set with A549 [1] of 330 nM.

In the case of `CNC(=O)c1ccccc1Nc1nc(Nc2ccc(N3CCN(CCCCCCCCC(=O)Nc4cccc5c4C(=O)N(C4CCC(=O)NC4=O)C5=O)CC3)cc2OC)ncc1Cl` (configuration not stated), in the data set with A549 [1], the IC50 was 1350 nM.

In the data set on A549 [1], `CNC(=O)c1ccccc1Nc1nc(Nc2ccc(N3CCN(CCCCC(=O)Nc4ccc5c(c4)C(=O)N(C4CCC(=O)NC4=O)C5=O)CC3)cc2OC)ncc1Cl` (configuration not stated) had an IC50 of 3420 nM.

With `CNC(=O)c1ccccc1Nc1nc(Nc2ccc(N3CCN(CCCCCC(=O)Nc4cccc5c4C(=O)N(C4CCC(=O)NC4=O)C5=O)CC3)cc2OC)ncc1Cl` (configuration not stated), in the data set on A549 [1], the midpoint of inhibition, the IC50, lay at 260 nM.

As to `CNC(=O)c1ccccc1Nc1nc(Nc2ccc(N3CCN(CCCCC(=O)NCCNc4cccc5c4C(=O)N(C4CCC(=O)NC4=O)C5=O)CC3)cc2OC)ncc1Cl` (configuration not stated), the IC50 in the data set on A549 [1] amounted to 4010 nM.
